The record followed here is ChEMBL document CHEMBL3988442, “University of Dundee, Small-Polar-MMV Screening Library” (2021).

A value given as a limit tells only on which side of the number the result lay.

This assay deals with ClpP1P2 (Mycobacterium tuberculosis (strain ATCC 25618 / H37Rv), UniProt P9WPC3+P9WPC5). The assay can be described thus: in vitro assay to detect presence of AMC directly proportional to the activity of ClpP1P2. GHDDI collaboration. Type of assay: functional.
Sequence of ClpP1P2 (P9WPC5 whole entry): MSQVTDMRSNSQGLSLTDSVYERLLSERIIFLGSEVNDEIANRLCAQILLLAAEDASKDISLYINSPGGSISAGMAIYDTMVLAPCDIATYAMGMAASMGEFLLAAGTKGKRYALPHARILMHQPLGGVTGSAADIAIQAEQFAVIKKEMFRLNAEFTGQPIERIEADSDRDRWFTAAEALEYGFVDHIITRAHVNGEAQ
Sequence of ClpP1P2 (P9WPC3 whole entry): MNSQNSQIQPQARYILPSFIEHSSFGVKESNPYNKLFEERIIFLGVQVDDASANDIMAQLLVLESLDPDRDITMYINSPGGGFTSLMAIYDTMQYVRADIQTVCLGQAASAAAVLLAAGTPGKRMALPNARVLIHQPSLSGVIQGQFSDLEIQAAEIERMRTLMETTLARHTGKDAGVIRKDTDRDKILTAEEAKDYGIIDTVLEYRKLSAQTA

On to `Cn1ncc2c1CCCN(C(=O)C1CCCC1)C2`, for which the IC50 was more than 100 µM.

In the case of `CNC(=O)c1cc2c(nc1NCC(C)C)CCN(S(=O)(=O)C1CC1)CC2`, the IC50 is more than 100 µM.

For `CNC(=O)c1cc2c(nc1NC(C)C)CCN(C(=O)NC(C)C)CC2`, the IC50 is more than 100 µM.

For `CNC(=O)c1cc2c(nc1NCC1CC1)CCN(S(=O)(=O)C1CC1)CC2`, the IC50 is more than 100 µM.

On to `CNc1cncc(C2CCN(C(=O)c3cnco3)CC2)n1`, for which the IC50 is more than 100 µM.

`Cc1cc(C)n(CCNCc2cc(-c3ccccc3)c[nH]c2=O)n1`: the IC50 was more than 100 µM.

Regarding `Cc1c(-c2cccs2)nn2c(O)c3c(nc12)CN(C(=O)C1CC1)C3`, the IC50 was more than 100 µM.

Regarding `O[C@@H]1C[C@H]2CN(Cc3ccccc3Cl)[C@H](Cc3ccccc3)CN2C1`, the IC50 was more than 100 µM.

Turning to `CC(C)=CCCC1(C)C=Cc2c(cc(C)n(CCC(=O)O)c2=O)O1` (configuration not stated), the 50% inhibitory concentration (IC50) is more than 100 µM.

Regarding `O=C(CO)N1CCC(CCc2ccnc(Nc3cnccn3)c2)CC1`, the IC50 is more than 100 µM.

Take `Cc1nc(C(=O)N2CCC(c3cc(CCO)n(C)n3)C2)co1` (configuration not stated): the IC50 is more than 100 µM.

For `CC(=O)N1CCC(c2cnc(NC3CCOCC3)cn2)CC1`, the IC50 was more than 100 µM.

As for `O=C(Nc1cc(CCC2CCN(CCO)CC2)ccn1)c1ccccn1`, the IC50 was more than 100 µM.

For the compound `CC(=O)N1CCC(CCc2ccnc(NC(=O)c3ccccn3)c2)CC1`, the IC50 was more than 100 µM.

Take `Cn1cnc2ccc(NC(=O)CC3CCN(S(C)(=O)=O)CC3)cc21`: the IC50 was more than 100 µM.

Consider `CC(C)(C)c1ccc(OCC(=O)O)c(CN2C[C@H]3C[C@H](O)C[C@H]3C2)c1`, for which the IC50 was more than 100 µM.

As to `O=C(c1cc(-c2cccnc2)[nH]n1)N1CCCC(c2cnccn2)C1` (configuration not stated), the IC50 is more than 100 µM.

As to `O=C1NC2(CCN(CC(=O)N3CCOCC3)CC2)Nc2ccccc21`, the IC50 is more than 100 µM.

In the case of `O=C(CN1CCC2(CC1)NC(=O)c1cc(Br)ccc1N2)NC1CC1`, the IC50 is more than 100 µM.

`O=C1NC2(CCN(C(=O)CN3CCOCC3)CC2)Nc2ccc(Cl)cc21`: the IC50 was more than 100 µM.

As to `O=C1NC2(CCN(CC(=O)N3CCOCC3)CC2)Nc2ccc(Br)cc21`, the IC50 is more than 100 µM.

Turning to `COCC(=O)N1CCC(c2cc3nc(C)cc(C(F)(F)F)n3n2)CC1`, the IC50 is more than 100 µM.

Turning to `COc1cc2c(cc1CCC(=O)O)CCC2`, the IC50 was more than 100 µM.

Take `CCN(CC)S(=O)(=O)c1cc2c3c(c1)c(C)cc(=O)n3CC2`: the IC50 was more than 100 µM.

For `CNC(=O)c1cnn2c(C3CCCN3)ccnc12` (configuration not stated), the IC50 is more than 100 µM.

Take `O=C(Cn1cccc2cc(-c3ccc(F)cc3)nc1-2)N1CCC(O)CC1`: the IC50 was more than 100 µM.

In the case of `COc1ccc(-c2cc3cccn(CC(=O)N4CCOCC4)c-3n2)cc1`, the IC50 is more than 100 µM.

On to `Oc1ccc(C2Nc3ccccc3C3=NCCCN32)cc1` (configuration not stated), for which the IC50 is more than 100 µM.

For `COc1ccc(C2Nc3cc(Cl)ccc3C3=NCCN32)cc1CO` (configuration not stated), the IC50 was more than 100 µM.

Turning to `CC(C)N1CCC(c2cc(C(F)(F)F)n3ccnc3n2)CC1`, the IC50 was more than 100 µM.

Regarding `COc1ccc(C2Nc3ccccc3C3=NCCCN32)cc1OC` (configuration not stated), the IC50 was more than 100 µM.

On to `CC1CCN(C(=O)C2CCN(c3ccc(Cl)cc3C#N)CC2)CC1`, for which the IC50 was more than 100 µM.

With `Cc1ccc2nc(CNc3ccccc3C(=O)NC3CC3)cn2c1`, the half-inhibitory concentration (IC50) was more than 100 µM.

As for `O=C1CCCN1Cc1nnc2n1CCCN(C(=O)c1ccco1)C2`, the IC50 was more than 100 µM.

`c1cnc(Nc2cncc(C3CCCN3)n2)cn1` (configuration not stated): the IC50 is more than 100 µM.

As to `COc1ccc(-c2cnc(N(C)C)nc2C2CNCCO2)cc1` (configuration not stated), the IC50 was more than 100 µM.

For the compound `COc1ccccc1Cc1cncc(N2CC(C(=O)O)C2)n1`, the IC50 was more than 100 µM.

Consider `CN(C)Cc1cc(C2CCCCN2S(=O)(=O)Cc2ccccc2)nn1C` (configuration not stated), for which the IC50 is more than 100 µM.

`CN(C)c1ncc(C2Nc3ccccc3C3=NCCCN32)cn1` (configuration not stated): the IC50 is more than 100 µM.

Turning to `CN(C)c1ncc(C2Nc3cc(Cl)ccc3C3=NCCCN32)cn1` (configuration not stated), the IC50 is more than 100 µM.

Consider `c1cncc(CN2CCC(c3ccc4c(c3)OCO4)CC2)c1`, for which the IC50 was more than 100 µM.

As to `Cc1c[nH]nc1C1CCCN1Cc1ncc[nH]1` (configuration not stated), the IC50 was more than 100 µM.
